Test results taken from patent publication US10544147B2, “Purine inhibitors of human phosphatidylinositol 3-kinase delta” (MERCK SHARP & DOHME CORP., priority 2016, dated 2020).

Tests used:
[1] = biological target: PI3Kalpha (Homo sapiens (Human), UniProt P42336); test: HTRF PI3K biochemical assay, alpha isoform (selectivity versus delta); conditions: ratio PI3K-alpha IC50 value/PI3K-delta IC50 value
Procedure: (§1) HTRF PI3K Biochemical Assay to Measure Intrinsic Potency of Compound Inhibitors
(§2) This loss of signal is nonlinear with respect to both increasing product and time. This non-linear detection will impact accuracy of IC50 calculations; therefore, there is a need for a correction factor to obtain more accurate IC50 values. This correction is derived from a PIP3 standard curve run in a separate assay plate. All data were calculated using the ratio of acceptor (APC) to donor (Europium) fluorescence in each well of the assay plate. […] An IC50 was then calculated fitting the % inhibition data to the equation: % inhibition=min+(Max−min)/1+([inhibitor]/IC50)^n) where min is the % inhibition with inhibitor, max is the signal in DMSO control, and n is the Hill slope.
(§3) The biological data was collected using the methodology described above.
The determination of relative selectivity for a given compound is defined as the relative ratio of the (PI3K-alphaIC50 value/PI3K-delta IC50 value).

[2] = biological target: PI3Kdelta (Homo sapiens (Human), UniProt O00329); test: HTRF PI3K biochemical assay, delta isoform; conditions: 0.3 nM enzyme, 100 uM ATP, 50 uM PIP2; form screened (neutral or TFA salt)
Procedure: as §1, §2, §3

PI3Kdelta, sequence (O00329 whole entry, canonical isoform): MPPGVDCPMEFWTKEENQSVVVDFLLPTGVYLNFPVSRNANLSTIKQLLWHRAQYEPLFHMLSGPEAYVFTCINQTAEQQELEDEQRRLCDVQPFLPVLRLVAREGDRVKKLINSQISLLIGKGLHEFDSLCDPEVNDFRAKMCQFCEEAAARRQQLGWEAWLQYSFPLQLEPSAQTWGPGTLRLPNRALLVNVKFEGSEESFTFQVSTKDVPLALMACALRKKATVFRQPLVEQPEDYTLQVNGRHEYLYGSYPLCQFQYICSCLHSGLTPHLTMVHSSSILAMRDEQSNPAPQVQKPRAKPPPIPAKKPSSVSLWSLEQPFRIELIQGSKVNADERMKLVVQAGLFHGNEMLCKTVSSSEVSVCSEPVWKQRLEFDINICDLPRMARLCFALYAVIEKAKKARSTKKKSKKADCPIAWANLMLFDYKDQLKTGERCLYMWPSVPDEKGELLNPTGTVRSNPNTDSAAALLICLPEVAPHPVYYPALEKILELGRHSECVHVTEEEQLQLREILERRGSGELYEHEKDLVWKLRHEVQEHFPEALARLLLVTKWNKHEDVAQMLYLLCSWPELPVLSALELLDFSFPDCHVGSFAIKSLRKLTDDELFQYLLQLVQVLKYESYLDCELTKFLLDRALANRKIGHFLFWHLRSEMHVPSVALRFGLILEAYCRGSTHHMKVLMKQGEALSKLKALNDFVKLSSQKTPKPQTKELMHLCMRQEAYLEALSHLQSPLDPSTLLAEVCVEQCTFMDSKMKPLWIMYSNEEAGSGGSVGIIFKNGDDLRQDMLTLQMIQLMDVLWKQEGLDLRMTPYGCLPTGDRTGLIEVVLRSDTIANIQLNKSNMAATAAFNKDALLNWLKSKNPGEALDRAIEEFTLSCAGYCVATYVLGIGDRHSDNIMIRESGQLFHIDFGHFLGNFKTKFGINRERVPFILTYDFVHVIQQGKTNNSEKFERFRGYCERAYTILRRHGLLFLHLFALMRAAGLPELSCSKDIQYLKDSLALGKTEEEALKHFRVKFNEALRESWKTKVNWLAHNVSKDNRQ
PI3Kdelta, sequence (P27986 whole entry partner, canonical isoform): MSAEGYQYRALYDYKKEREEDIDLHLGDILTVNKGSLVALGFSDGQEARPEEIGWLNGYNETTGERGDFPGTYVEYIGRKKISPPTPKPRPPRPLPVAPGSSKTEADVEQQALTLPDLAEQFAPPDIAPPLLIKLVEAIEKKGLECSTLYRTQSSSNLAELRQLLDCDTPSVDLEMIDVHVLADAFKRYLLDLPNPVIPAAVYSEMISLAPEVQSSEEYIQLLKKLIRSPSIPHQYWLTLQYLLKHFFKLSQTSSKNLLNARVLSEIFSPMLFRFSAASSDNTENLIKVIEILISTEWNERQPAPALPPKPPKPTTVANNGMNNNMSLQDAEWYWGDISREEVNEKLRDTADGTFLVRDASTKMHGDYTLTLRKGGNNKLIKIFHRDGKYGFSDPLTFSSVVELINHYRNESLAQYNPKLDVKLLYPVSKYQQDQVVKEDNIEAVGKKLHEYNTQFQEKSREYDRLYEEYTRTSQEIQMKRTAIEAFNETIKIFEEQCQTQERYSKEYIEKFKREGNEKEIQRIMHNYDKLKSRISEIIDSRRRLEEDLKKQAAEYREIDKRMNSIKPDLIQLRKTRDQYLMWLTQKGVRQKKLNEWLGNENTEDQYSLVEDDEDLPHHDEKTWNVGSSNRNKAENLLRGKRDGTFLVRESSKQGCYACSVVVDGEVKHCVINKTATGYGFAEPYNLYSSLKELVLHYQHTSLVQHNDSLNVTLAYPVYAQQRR
PI3Kalpha, sequence (P42336 whole entry, canonical isoform): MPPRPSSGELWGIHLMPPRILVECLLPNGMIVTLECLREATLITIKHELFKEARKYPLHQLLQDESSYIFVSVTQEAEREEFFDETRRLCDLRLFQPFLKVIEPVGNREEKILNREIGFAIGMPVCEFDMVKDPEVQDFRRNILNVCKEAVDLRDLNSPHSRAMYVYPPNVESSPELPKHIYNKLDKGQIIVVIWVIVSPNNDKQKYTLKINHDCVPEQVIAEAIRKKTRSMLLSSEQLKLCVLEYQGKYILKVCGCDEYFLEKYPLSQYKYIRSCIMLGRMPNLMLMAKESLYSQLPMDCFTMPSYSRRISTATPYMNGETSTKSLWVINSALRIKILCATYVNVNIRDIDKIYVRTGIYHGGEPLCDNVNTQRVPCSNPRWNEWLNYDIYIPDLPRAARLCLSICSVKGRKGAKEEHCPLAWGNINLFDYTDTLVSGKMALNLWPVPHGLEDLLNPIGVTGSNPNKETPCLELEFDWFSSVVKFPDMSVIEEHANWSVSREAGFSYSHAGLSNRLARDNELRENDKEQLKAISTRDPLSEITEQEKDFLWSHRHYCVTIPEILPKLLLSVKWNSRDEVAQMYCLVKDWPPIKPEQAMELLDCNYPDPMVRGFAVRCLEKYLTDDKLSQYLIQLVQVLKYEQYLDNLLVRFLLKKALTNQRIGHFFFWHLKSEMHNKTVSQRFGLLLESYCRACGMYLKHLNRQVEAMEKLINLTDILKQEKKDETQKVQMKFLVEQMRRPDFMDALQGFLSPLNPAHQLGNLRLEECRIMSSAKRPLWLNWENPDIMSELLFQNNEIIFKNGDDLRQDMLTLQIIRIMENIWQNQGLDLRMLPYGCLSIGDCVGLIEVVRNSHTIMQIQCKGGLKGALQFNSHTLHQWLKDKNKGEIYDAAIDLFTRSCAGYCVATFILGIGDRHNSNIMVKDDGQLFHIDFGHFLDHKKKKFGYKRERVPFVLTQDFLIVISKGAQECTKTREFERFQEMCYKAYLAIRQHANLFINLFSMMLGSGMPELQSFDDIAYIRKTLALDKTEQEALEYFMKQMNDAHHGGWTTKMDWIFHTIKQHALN
PI3Kalpha, sequence (P27986 whole entry partner, canonical isoform): as the sequence (P27986 whole entry partner, canonical isoform) above

Row | Compound | Relative Selectivity versus PI3Kalpha [1] | IC50 [2] [nM]
1 | Cc1ncc(-c2nc3c(-c4ccc5c(c4)C(C)(NCC(C)(F)F)C(=O)N5)ncnc3n2C)cn1 (single isomer, unassigned) [Compound 2-69, (R or S)-3-((2,2-difluoropropyl)amino)-3-methyl-5-(9-methyl-8-(2-methylpyrimidin-5-yl)-9H-purin-6-yl)indolin-2-one] | 5 | 788
2 | CCn1c(-c2cnc(C)nc2)nc2c(-c3ccc4c(c3)C(C)(N[C@@H](C)C3CC3)C(=O)N4)ncnc21 (single isomer, unassigned) [Compound 2-12, 3-{[(1S)-1-cyclopropylethyl]amino}-5-[9-ethyl-8-(2-methylpyrimidin-5-yl)-9H-purin-6-yl]-3(R or S)-methyl-1,3-dihydro-2H-indol-2-one] | >10 | 5
3 | CCn1c(-c2cnc(C)nc2)nc2c(-c3ccc4c(c3)C(C)(Cc3ccccc3)C(=O)N4C)ncnc21 (single isomer, unassigned) [Compound 1-21, 3-Benzyl-5-(9-ethyl-8-(2-methylpyrimidin-5-yl)-9H-purin-6-yl)-1,3-dimethylindolin-2-one] | >10 | 4
4 | CCn1c(-c2cnc(C)nc2)nc2c(-c3ccc4c(c3)C3(CCCN3S(C)(=O)=O)C(=O)N4)ncnc21 (single isomer, unassigned) [Compound 3-19, (R or S)-5-(9-ethyl-8-(2-methylpyrimidin-5-yl)-9H-purin-6-yl)-1′-(methylsulfonyl)spiro[indoline-3,2′-pyrrolidin]-2-one] | >10 | 0.7
5 | CCn1c(-c2cnc(C)nc2)nc2c(-c3ccc4c(c3)C3(CCCN3S(C)(=O)=O)C(=O)N4C)ncnc21 (single isomer, unassigned) [Compound 3-24, (R or S)-5-(9-ethyl-8-(2-methylpyrimidin-5-yl)-9H-purin-6-yl)-1-methyl-1′-(methylsulfonyl)spiro[indoline-3,2′-pyrrolidin]-2-one] | >10 | 32
6 | CCn1c(-c2cnc(C)nc2)nc2c(-c3ccc4c(c3)C(C)(N3CC(C)(O)C3)C(=O)N4)ncnc21 (single isomer, unassigned) [Compound 2-80, (R or S)-5-(9-ethyl-8-(2-methylpyrimidin-5-yl)-9H-purin-6-yl)-3-(3-hydroxy-3-methylazetidin-1-yl)-3-methylindolin-2-one] | >10 | 7
7 | CCN1CCCC12C(=O)Nc1ccc(-c3ncnc4c3nc(-c3cnc(C)nc3)n4C)cc12 (single isomer, unassigned) [Compound 3-29, (R or S)-1′-ethyl-5-(9-methyl-8-(2-methylpyrimidin-5-yl)-9H-purin-6-yl)spiro[indoline-3,2′-pyrrolidin]-2-one] | >10 | 15
8 | CCn1c(-c2cnc(C)nc2)nc2c(-c3ccc4c(c3)CNC4=O)ncnc21 [Compound 4-15, 5-(9-ethyl-8-(2-methylpyrimidin-5-yl)-9H-purin-6-yl)isoindolin-1-one] | 7 | 
9 | CCn1c(-c2cnc(C)nc2)nc2c(-c3ccc4c(c3)C(C)(N[C@H](C)C3CC3)C(=O)N4)ncnc21 (mixture of isomers) [Compound 2-11, 3-{[(1R)-1-cyclopropylethyl]amino}-5-[9-ethyl-8-(2-methylpyrimidin-5-yl)-9H-purin-6-yl]-3(R and S)-methyl-1,3-dihydro-2H-indol-2-one] | >10 | 15
10 | CCn1c(-c2cnc(C)nc2)nc2c(-c3ccc4c(c3)C(C)(CC(C)C)NC4=O)ncnc21 (single isomer, unassigned) [Compound 4-8, (R or S)-5-[9-ethyl-8-(2-methylpyrimidin-5-yl)-9H-purin-6-yl]-3-methyl-3-(2-methylpropyl)-2,3-dihydro-1H-isoindol-1-one] | >10 | 128
11 | CCn1c(-c2cnc(C)nc2)nc2c(-c3ccc4c(c3)C(C)(Cc3cncnc3)C(=O)N4)ncnc21 (racemic) [Compound 1-33, 5-(9-ethyl-8-(2-methylpyrimidin-5-yl)-9H-purin-6-yl)-3-methyl-3-(pyrimidin-5-ylmethyl)indolin-2-one] | >10 | 
12 | CCn1c(-c2cnc(C)nc2)nc2c(-c3ccc4c(c3)C(C)(c3ccccc3)OC(=O)N4)ncnc21 (centres unmarked) [Compound 4-16, 6-(9-ethyl-8-(2-methylpyrimidin-5-yl)-9H-purin-6-yl)-4-methyl-4-phenyl-1,4-dihydro-2H-benzo[d][1,3]oxazin-2-one] | >10 | 
13 | Cc1ncc(-c2nc3c(-c4ccc5c(c4)C(C)(OCC4CC4)C(=O)N5)ncnc3n2C)cn1 (racemic) [Compound 2-75, 3-(cyclopropylmethoxy)-3-methyl-5-(9-methyl-8-(2-methylpyrimidin-5-yl)-9H-purin-6-yl)indolin-2-one] | >10 | 
14 | CCn1c(-c2cnc(C)nc2)nc2c(-c3ccc4c(c3)C(C)(Cc3ccccc3)CN4C)ncnc21 (centres unmarked) [Compound 1-22, 6-(3-Benzyl-1,3-dimethylindolin-5-yl)-9-ethyl-8-(2-methylpyrimidin-5-yl)-9H-purine] | >10 | 
15 | CCn1c(-c2cnc(C)nc2)nc2c(-c3ccc4c(c3)C(C#N)(CC(C)C)C(=O)N4)ncnc21 (centres unmarked) [Compound 1-11, 5-(9-Ethyl-8-(2-methylpyrimidin-5-yl)-9H-purin-6-yl)-3-isobutyl-2-oxoindoline-3-carbonitrile] | >10 | 
16 | CCn1c(-c2cnc(C)nc2)nc2c(-c3ccc4c(c3)C3(CCCC3)C(=O)N4)ncnc21 [Compound 3-34, 5′-(9-ethyl-8-(2-methylpyrimidin-5-yl)-9H-purin-6-yl)spiro[cyclopentane-1,3′-indolin]-2′-one] | >10 | 
17 | CCn1c(-c2cnc(C)nc2)nc2c(-c3ccc4oc(=O)n(CC5CCOCC5)c4c3)ncnc21 [Compound 5-4, 5-[9-ethyl-8-(2-methylpyrimidin-5-yl)-9H-purin-6-yl]-3-(tetrahydro-2H-pyran-4-ylmethyl)-1,3-benzoxazol-2(3H)-one] | >10 | 
18 | CCn1c(-c2cnc(C)nc2)nc2c(-c3ccc4c(c3)CN(C)S4(=O)=O)ncnc21 [Compound 4-14, 5-(9-ethyl-8-(2-methylpyrimidin-5-yl)-9H-purin-6-yl)-2-methyl-2,3-dihydrobenzo[d]isothiazole 1,1-dioxide] | >10 | 
19 | CCn1c(-c2cnc(C)nc2)nc2c(-c3ccc4c(c3)CNS4(=O)=O)ncnc21 [Compound 4-13, 5-(9-ethyl-8-(2-methylpyrimidin-5-yl)-9H-purin-6-yl)-2,3-dihydrobenzo[d]isothiazole 1,1-dioxide] | 9 | 
20 | CCn1c(-c2cnc(C)nc2)nc2c(-c3ccc4c(c3)C(C)(OC3CCC3)C(=O)N4)ncnc21 (racemic) [Compound 2-74, 3-cyclobutoxy-5-(9-ethyl-8-(2-methylpyrimidin-5-yl)-9H-purin-6-yl)-3-methylindolin-2-one] | >10 | 
21 | Cc1ncc(-c2nc3c(-c4ccc5c(c4)C4(CCN(C(=O)C6CC6)CC4)C(=O)N5)ncnc3n2C)cn1 [Compound 3-25, 1′-(cyclopropanecarbonyl)-5-(9-methyl-8-(2-methylpyrimidin-5-yl)-9H-purin-6-yl)spiro[indoline-3,4′-piperidin]-2-one] | >10 | 
22 | CCn1c(-c2cnc(C)nc2)nc2c(-c3ccc4c(c3)C(C#N)(N3CC(C)(OC)C3)C(=O)N4)ncnc21 (centres unmarked) [Compound 2-77, 5-(9-ethyl-8-(2-methylpyrimidin-5-yl)-9H-purin-6-yl)-3-(3-methoxy-3-methylazetidin-1-yl)-2-oxoindoline-3-carbonitrile] | >10 | 
23 | CCn1c(-c2cnc(C)nc2)nc2c(-c3ccc4c(c3)C(C)(OC(C)C)C(=O)N4)ncnc21 (racemic) [Compound 2-73, 5-(9-ethyl-8-(2-methylpyrimidin-5-yl)-9H-purin-6-yl)-3-isopropoxy-3-methylindolin-2-one] | >10 | 
24 | CCn1c(-c2cnc(C)nc2)nc2c(-c3ccc4oc(=O)n(Cc5ccccc5)c4c3)ncnc21 [Compound 5-3, 3-benzyl-5-[9-ethyl-8-(2-methylpyrimidin-5-yl)-9H-purin-6-yl]-1,3-benzoxazol-2(3H)-one] | >10 | 
25 | CCn1c(-c2cnc(C)nc2)nc2c(-c3ccc4c(c3)C(C)(Cc3ccccc3)CN4C(C)=O)ncnc21 (centres unmarked) [Compound 1-19, 1-(3-Benzyl-5-(9-ethyl-8-(2-methylpyrimidin-5-yl)-9H-purin-6-yl)-3-methylindolin-1-yl)ethan-1-one] | >10 | 
26 | CCn1c(-c2cnc(C)nc2)nc2c(-c3ccc4c(c3)C(C)(Cc3ccccc3)CN4)ncnc21 (centres unmarked) [Compound 1-18, 6-(3-Benzyl-3-methylindolin-5-yl)-9-ethyl-8-(2-methylpyrimidin-5-yl)-9H-purine] | >10 | 
